Read-outs that look alike come from different tables or passages of the source.
Tests used:
HCV GT1a(H77) replicon = test: HCV replicon luciferase reporter assay, genotype 1a; type: cell-based, HCV genotype 1a; settings: Hepatitis C virus, 72 h, HUH-7 cells, 3 days incubation
Source text: A stable HCV GT1a(H77) replicon luciferase reporter cell line (Yanagi M, Purcell R H, Emerson S U, et al. Transcripts from a single full-length cDNA clone of hepatitis C virus are infectious when directly transfected into the liver of a chimpanzee. Proc Natl Acad Sci USA 1997; 94(16):8738-8743) was generated as described previously for the genotype 1b(Con1) replicon luciferase cell line. The replicon construct was modified by introducing mutations into the genes encoding the NS3 helicase domain (proline replaced by leucine at position 1496) and NS5A (serine to isoleucine at position 2204) to improve replication in cell culture.
(§1) HCV replicon luciferase assays were developed to monitor the inhibitory effects of compounds described in the disclosure on HCV genotypes 1a and 1b viral replication. HUH-7 cells, constitutively expressing the HCV replicon, were grown in Dulbecco's Modified Eagle Media (DMEM) (Gibco-BRL) containing 10% Fetal calf serum (FCS) (Sigma) and 1 mg/mL G418 (Gibco-BRL). Compounds were serially diluted 3 folds in DMSO for a twenty-point titration and subsequently transferred to sterile 384-well tissue-culture treated plates (Corning cat #3571). The plates were then seeded with 50 μL of cells at a density of 3.0×10^3 cells/well in DMEM containing 4% FCS (final DMSO concentration at 0.5%). After 3 days incubation at 37° C., cells were analyzed for Renilla Luciferase activity using the EnduRen as substrate (Promega cat #E6485). The EnduRen substrate was diluted in DMEM and then added to the plates to a final concentration of 7.5 μM. The plates were incubated for 2 hrs at 37° C. and then read immediately for 30 seconds with Viewlux Imager (PerkinElmer) using a luminescence program. To assess cytotoxicity of compounds, CC50 values were generated by multiplexing the EnduRen-containing plates with Cell Titer-Blue (Promega, cat # G8082). Cell-Titer Blue (3 μL) was added to each well and incubated for 8 hrs at 37° C. The fluorescence signal from each well was read, with an excitation wavelength at 525/10 nm and an emission wavelength of 598/10 nm, using the Viewlux Imager.
(§2) The EC50 values for compounds were calculated by using a four-parameter logistic equation: y=A+((B−A)/(1+((C/x)^D))), where A and B denotes minimal and maximal % inhibition, respectively, C is the EC50, D is the hill slope and x represents compound concentration.

HCV GT1b(Con1) replicon = test: HCV replicon luciferase reporter assay, genotype 1b; type: cell-based, HCV genotype 1b; settings: Hepatitis C virus, 72 h, HUH-7 cells, 3 days incubation
Source text: An HCV GT1b(Con1) replicon cell system was established as described by Lohmann V, Korner F, Koch J, Herian U, Theilmann L, Bartenschlager R., Science 285(5424):110-3 (1999) and modified to introduce a luciferase reporter (Krieger N, Lohmann V, and Bartenschlager R, J. Virol. 75(10):4614-4624 (2001)). cDNA encoding a humanized form of the Renilla luciferase gene, and a linker sequence fused directly to the 3′-end of the luciferase gene were introduced into the replicon construct using an Asc1 restriction site located in core, directly upstream of the neomycin marker gene. The adaptive mutation at position 1179 (serine to isoleucine) was also introduced (Blight K J, Kolykhalov, A A, Rice, C M, Science 290(5498):1972-1974). A stable cell line constitutively expressing this HCV replicon construct was generated by first linearizing plasmid DNAs with ScaI. RNA transcripts were synthesized in vitro using the T7 MegaScript transcription kit (Ambion, Austin, Tex.) according to manufacturer's directions. In vitro transcripts of the cDNA were transfected into the human hepatoma cell line, HUH-7. […] Resulting cell lines were characterized for positive and negative strand RNA production and protein production over time.
as §1, §2

Row | Compound | EC50 (HCV GT1a(H77) replicon; read-out: LE_1a (EC50)) | EC50 (HCV GT1a(H77) replicon; read-out: LE_1a (EC50, range)) | EC50 (HCV GT1b(Con1) replicon; read-out: LE_1b (EC50)) | EC50 (HCV GT1b(Con1) replicon; read-out: LE_1b (EC50, range))
1 | C[C@@H]1CC/C=C\[C@@H]2C[C@@]2(C(=O)NS(=O)(=O)C2(C)CC2)NC(=O)[C@@H]2C[C@@H](OC(=O)Nc3ccc(F)cc3)CN2C(=O)[C@@H](NC(=O)OC(C)(C)C)[C@H](C)C1 [Compound 1304] | 62.5 nM | 35 to 62.5 nM | 20.6 nM | 5.01 to 35 nM
2 | C[C@@H]1CC/C=C\[C@@H]2C[C@@]2(C(=O)NS(=O)(=O)C2(C)CC2)NC(=O)[C@@H]2C[C@@H](OC(=O)Nc3ccc(F)cc3)CN2C(=O)[C@@H](NC(=O)OC(C)(C)C(F)(F)F)[C@H](C)C1 [Compound 1309] | – | 35 to 62.5 nM | – | 5.01 to 35 nM
3 | C[C@@H]1CC/C=C\[C@@H]2C[C@@]2(C(=O)NS(=O)(=O)C2(CF)CC2)NC(=O)[C@@H]2C[C@@H](OC(=O)c3ccccc3C(F)(F)F)CN2C(=O)[C@@H](NC(=O)OC(C)(C)C(F)(F)F)[C@H](C)C1 [Compound 1002, (2R,6S,7R,9R,13aS,14aR,16aS,Z)-14a-(((1-(fluoromethyl)cyclopropyl)sulfonyl)carbamoyl)-7,9-dimethyl-5,16-dioxo-6-((((1,1,1-trifluoro-2-methylpropan-2-yl)oxy)carbonyl)amino)-1,2,3,5,6,7,8,9,10,11,13a,14,14a,15,16,16a-hexadecahydrocyclopropa[e]pyrrolo[1,2-a][1,4]diazacyclopentadecin-2-yl 2-(trifluoromethyl)benzoate] | – | 5.01 to 35 nM | – | 1.01 to 5 nM
4 | C[C@@H]1CC/C=C\[C@@H]2C[C@@]2(C(=O)NS(=O)(=O)C2(C)CC2)NC(=O)[C@@H]2C[C@@H](OC(=O)c3ccc4c(c3)OCCO4)CN2C(=O)[C@@H](NC(=O)OC(C)(C)C)[C@H](C)C1 [Compound 1013, (2R,6S,7R,9R,13aS,14aR,16aS,Z)-6-((tert-butoxycarbonyl)amino)-7,9-dimethyl-14a-(((1-methylcyclopropyl)sulfonyl)carbamoyl)-5,16-dioxo-1,2,3,5,6,7,8,9,10,11,13a,14,14a,15,16,16a-hexadecahydrocyclopropa[e]pyrrolo[1,2-a][1,4]diazacyclopentadecin-2-yl 2,3-dihydrobenzo[b][1,4]dioxine-6-carboxylate] | – | 1.01 to 5 nM | – | 1.01 to 5 nM
5 | COc1ccc(C(=O)O[C@@H]2C[C@H]3C(=O)N[C@]4(C(=O)NS(=O)(=O)C5(C)CC5)C[C@H]4/C=C\CC[C@@H](C)C[C@@H](C)[C@H](NC(=O)OC(C)(C)C)C(=O)N3C2)cc1 [Compound 1003, (2R,6S,7R,9R,13aS,14aR,16aS,Z)-6-((tert-butoxycarbonyl)amino)-7,9-dimethyl-14a-(((1-methylcyclopropyl)sulfonyl)carbamoyl)-5,16-dioxo-1,2,3,5,6,7,8,9,10,11,13a,14,14a,15,16,16a-hexadecahydrocyclopropa[e]pyrrolo[1,2-a][1,4]diazacyclopentadecin-2-yl 4-methoxybenzoate] | – | 5.01 to 35 nM | – | 5.01 to 35 nM
6 | C[C@@H]1CC/C=C\[C@@H]2C[C@@]2(C(=O)NS(=O)(=O)C2(CF)CC2)NC(=O)[C@@H]2C[C@@H](OC(=O)c3ccc4ccccc4c3)CN2C(=O)[C@@H](NC(=O)OC(C)(C)C(F)(F)F)[C@H](C)C1 [Compound 1006] | – | 1.01 to 5 nM | – | 1.01 to 5 nM
7 | COc1ccc(C(=O)O[C@@H]2C[C@H]3C(=O)N[C@]4(C(=O)NS(=O)(=O)C5(C)CC5)C[C@H]4/C=C\CC[C@@H](C)C[C@@H](C)[C@H](NC(=O)OC(C)(C)C(F)(F)F)C(=O)N3C2)cc1 [Compound 1005, (2R,6S,7R,9R,13aS,14aR,16aS,Z)-7,9-dimethyl-14a-(((1-methylcyclopropyl)sulfonyl)carbamoyl)-5,16-dioxo-6-((((1,1,1-trifluoro-2-methylpropan-2-yl)oxy)carbonyl)amino)-1,2,3,5,6,7,8,9,10,11,13a,14,14a,15,16,16a-hexadecahydrocyclopropa[e]pyrrolo[1,2-a][1,4]diazacyclopentadecin-2-yl 4-methoxybenzoate] | 1.15 nM | 1.01 to 5 nM | 0.75 nM | 0.51 to 1 nM
8 | C[C@@H]1CC/C=C\[C@@H]2C[C@@]2(C(=O)NS(=O)(=O)C2(C)CC2)NC(=O)[C@@H]2C[C@@H](OC(=O)c3ccc4c(c3)OCCO4)CN2C(=O)[C@@H](NC(=O)OC(C)(C)C(F)(F)F)[C@H](C)C1 [Compound 1015, (2R,6S,7R,9R,13aS,14aR,16aS,Z)-7,9-dimethyl-14a-(((1-methylcyclopropyl)sulfonyl)carbamoyl)-5,16-dioxo-6-((((1,1,1-trifluoro-2-methylpropan-2-yl)oxy)carbonyl)amino)-1,2,3,5,6,7,8,9,10,11,13a,14,14a,15,16,16a-hexadecahydrocyclopropa[e]pyrrolo[1,2-a][1,4]diazacyclopentadecin-2-yl 2,3-dihydrobenzo[b][1,4]dioxine-6-carboxylate] | – | 5.01 to 35 nM | – | 1.01 to 5 nM
9 | CC[C@@H]1C[C@H](C)CC/C=C\[C@@H]2C[C@@]2(C(=O)NS(=O)(=O)C2(C)CC2)NC(=O)[C@@H]2C[C@@H](OC(=O)N3Cc4cccc(F)c4C3)CN2C(=O)[C@H]1NC(=O)OC(C)(C)C [Compound 1313, (2R,6S,7R,9R,13aS,14aR,16aS,Z)-6-((tert-butoxycarbonyl)amino)-7-ethyl-9-methyl-14a-(((1-methylcyclopropyl)sulfonyl)carbamoyl)-5,16-dioxo-1,2,3,5,6,7,8,9,10,11,13a,14,14a,15,16,16a-hexadecahydrocyclopropa[e]pyrrolo[1,2-a][1,4]diazacyclopentadecin-2-yl 4-fluoroisoindoline-2-carboxylate] | – | 1.01 to 5 nM | – | 1.01 to 5 nM
10 | C[C@@H]1CC/C=C\[C@@H]2C[C@@]2(C(=O)NS(=O)(=O)C2(CF)CC2)NC(=O)[C@@H]2C[C@@H](OC(=O)c3ccc4c(c3)OCO4)CN2C(=O)[C@@H](NC(=O)OC(C)(C)C(F)(F)F)[C@H](C)C1 [Compound 1011, (2R,6S,7R,9R,13aS,14aR,16aS,Z)-14a-(((1-(fluoromethyl)cyclopropyl)sulfonyl)carbamoyl)-7,9-dimethyl-5,16-dioxo-6-((((1,1,1-trifluoro-2-methylpropan-2-yl)oxy)carbonyl)amino)-1,2,3,5,6,7,8,9,10,11,13a,14,14a,15,16,16a-hexadecahydrocyclopropa[e]pyrrolo[1,2-a][1,4]diazacyclopentadecin-2-yl benzo[d][1,3]dioxole-5-carboxylate] | 7.98 nM | 5.01 to 35 nM | 1.68 nM | 1.01 to 5 nM
11 | C[C@@H]1CC/C=C\[C@@H]2C[C@@]2(C(=O)NS(=O)(=O)C2(C)CC2)NC(=O)[C@@H]2C[C@@H](OC(=O)Nc3ccccc3C(F)(F)F)CN2C(=O)[C@@H](NC(=O)OC(C)(C)C)[C@H](C)C1 [Compound 1302] | – | 5.01 to 35 nM | – | 1.01 to 5 nM
12 | Cc1cc(C)c(NC(=O)O[C@@H]2C[C@H]3C(=O)N[C@]4(C(=O)NS(=O)(=O)C5(C)CC5)C[C@H]4/C=C\CC[C@@H](C)C[C@@H](C)[C@H](NC(=O)OC(C)(C)C(F)(F)F)C(=O)N3C2)c(Cl)c1 [Compound 1311] | – | 35 to 62.5 nM | – | 5.01 to 35 nM

— patent publication US9409943B2 (Bristol-Myers Squibb Company, priority 2012, dated 2016)
